Molecular target: Ryanodine receptor 1 (Oryctolagus cuniculus, UniProt P11716)
Assay: Displacement of [3H]ryanodine from Ry1R/FKBP12 receptor complex in rabbit sarcoplasmic reticulum

Ryanodine receptor 1, sequence (P11716 whole entry): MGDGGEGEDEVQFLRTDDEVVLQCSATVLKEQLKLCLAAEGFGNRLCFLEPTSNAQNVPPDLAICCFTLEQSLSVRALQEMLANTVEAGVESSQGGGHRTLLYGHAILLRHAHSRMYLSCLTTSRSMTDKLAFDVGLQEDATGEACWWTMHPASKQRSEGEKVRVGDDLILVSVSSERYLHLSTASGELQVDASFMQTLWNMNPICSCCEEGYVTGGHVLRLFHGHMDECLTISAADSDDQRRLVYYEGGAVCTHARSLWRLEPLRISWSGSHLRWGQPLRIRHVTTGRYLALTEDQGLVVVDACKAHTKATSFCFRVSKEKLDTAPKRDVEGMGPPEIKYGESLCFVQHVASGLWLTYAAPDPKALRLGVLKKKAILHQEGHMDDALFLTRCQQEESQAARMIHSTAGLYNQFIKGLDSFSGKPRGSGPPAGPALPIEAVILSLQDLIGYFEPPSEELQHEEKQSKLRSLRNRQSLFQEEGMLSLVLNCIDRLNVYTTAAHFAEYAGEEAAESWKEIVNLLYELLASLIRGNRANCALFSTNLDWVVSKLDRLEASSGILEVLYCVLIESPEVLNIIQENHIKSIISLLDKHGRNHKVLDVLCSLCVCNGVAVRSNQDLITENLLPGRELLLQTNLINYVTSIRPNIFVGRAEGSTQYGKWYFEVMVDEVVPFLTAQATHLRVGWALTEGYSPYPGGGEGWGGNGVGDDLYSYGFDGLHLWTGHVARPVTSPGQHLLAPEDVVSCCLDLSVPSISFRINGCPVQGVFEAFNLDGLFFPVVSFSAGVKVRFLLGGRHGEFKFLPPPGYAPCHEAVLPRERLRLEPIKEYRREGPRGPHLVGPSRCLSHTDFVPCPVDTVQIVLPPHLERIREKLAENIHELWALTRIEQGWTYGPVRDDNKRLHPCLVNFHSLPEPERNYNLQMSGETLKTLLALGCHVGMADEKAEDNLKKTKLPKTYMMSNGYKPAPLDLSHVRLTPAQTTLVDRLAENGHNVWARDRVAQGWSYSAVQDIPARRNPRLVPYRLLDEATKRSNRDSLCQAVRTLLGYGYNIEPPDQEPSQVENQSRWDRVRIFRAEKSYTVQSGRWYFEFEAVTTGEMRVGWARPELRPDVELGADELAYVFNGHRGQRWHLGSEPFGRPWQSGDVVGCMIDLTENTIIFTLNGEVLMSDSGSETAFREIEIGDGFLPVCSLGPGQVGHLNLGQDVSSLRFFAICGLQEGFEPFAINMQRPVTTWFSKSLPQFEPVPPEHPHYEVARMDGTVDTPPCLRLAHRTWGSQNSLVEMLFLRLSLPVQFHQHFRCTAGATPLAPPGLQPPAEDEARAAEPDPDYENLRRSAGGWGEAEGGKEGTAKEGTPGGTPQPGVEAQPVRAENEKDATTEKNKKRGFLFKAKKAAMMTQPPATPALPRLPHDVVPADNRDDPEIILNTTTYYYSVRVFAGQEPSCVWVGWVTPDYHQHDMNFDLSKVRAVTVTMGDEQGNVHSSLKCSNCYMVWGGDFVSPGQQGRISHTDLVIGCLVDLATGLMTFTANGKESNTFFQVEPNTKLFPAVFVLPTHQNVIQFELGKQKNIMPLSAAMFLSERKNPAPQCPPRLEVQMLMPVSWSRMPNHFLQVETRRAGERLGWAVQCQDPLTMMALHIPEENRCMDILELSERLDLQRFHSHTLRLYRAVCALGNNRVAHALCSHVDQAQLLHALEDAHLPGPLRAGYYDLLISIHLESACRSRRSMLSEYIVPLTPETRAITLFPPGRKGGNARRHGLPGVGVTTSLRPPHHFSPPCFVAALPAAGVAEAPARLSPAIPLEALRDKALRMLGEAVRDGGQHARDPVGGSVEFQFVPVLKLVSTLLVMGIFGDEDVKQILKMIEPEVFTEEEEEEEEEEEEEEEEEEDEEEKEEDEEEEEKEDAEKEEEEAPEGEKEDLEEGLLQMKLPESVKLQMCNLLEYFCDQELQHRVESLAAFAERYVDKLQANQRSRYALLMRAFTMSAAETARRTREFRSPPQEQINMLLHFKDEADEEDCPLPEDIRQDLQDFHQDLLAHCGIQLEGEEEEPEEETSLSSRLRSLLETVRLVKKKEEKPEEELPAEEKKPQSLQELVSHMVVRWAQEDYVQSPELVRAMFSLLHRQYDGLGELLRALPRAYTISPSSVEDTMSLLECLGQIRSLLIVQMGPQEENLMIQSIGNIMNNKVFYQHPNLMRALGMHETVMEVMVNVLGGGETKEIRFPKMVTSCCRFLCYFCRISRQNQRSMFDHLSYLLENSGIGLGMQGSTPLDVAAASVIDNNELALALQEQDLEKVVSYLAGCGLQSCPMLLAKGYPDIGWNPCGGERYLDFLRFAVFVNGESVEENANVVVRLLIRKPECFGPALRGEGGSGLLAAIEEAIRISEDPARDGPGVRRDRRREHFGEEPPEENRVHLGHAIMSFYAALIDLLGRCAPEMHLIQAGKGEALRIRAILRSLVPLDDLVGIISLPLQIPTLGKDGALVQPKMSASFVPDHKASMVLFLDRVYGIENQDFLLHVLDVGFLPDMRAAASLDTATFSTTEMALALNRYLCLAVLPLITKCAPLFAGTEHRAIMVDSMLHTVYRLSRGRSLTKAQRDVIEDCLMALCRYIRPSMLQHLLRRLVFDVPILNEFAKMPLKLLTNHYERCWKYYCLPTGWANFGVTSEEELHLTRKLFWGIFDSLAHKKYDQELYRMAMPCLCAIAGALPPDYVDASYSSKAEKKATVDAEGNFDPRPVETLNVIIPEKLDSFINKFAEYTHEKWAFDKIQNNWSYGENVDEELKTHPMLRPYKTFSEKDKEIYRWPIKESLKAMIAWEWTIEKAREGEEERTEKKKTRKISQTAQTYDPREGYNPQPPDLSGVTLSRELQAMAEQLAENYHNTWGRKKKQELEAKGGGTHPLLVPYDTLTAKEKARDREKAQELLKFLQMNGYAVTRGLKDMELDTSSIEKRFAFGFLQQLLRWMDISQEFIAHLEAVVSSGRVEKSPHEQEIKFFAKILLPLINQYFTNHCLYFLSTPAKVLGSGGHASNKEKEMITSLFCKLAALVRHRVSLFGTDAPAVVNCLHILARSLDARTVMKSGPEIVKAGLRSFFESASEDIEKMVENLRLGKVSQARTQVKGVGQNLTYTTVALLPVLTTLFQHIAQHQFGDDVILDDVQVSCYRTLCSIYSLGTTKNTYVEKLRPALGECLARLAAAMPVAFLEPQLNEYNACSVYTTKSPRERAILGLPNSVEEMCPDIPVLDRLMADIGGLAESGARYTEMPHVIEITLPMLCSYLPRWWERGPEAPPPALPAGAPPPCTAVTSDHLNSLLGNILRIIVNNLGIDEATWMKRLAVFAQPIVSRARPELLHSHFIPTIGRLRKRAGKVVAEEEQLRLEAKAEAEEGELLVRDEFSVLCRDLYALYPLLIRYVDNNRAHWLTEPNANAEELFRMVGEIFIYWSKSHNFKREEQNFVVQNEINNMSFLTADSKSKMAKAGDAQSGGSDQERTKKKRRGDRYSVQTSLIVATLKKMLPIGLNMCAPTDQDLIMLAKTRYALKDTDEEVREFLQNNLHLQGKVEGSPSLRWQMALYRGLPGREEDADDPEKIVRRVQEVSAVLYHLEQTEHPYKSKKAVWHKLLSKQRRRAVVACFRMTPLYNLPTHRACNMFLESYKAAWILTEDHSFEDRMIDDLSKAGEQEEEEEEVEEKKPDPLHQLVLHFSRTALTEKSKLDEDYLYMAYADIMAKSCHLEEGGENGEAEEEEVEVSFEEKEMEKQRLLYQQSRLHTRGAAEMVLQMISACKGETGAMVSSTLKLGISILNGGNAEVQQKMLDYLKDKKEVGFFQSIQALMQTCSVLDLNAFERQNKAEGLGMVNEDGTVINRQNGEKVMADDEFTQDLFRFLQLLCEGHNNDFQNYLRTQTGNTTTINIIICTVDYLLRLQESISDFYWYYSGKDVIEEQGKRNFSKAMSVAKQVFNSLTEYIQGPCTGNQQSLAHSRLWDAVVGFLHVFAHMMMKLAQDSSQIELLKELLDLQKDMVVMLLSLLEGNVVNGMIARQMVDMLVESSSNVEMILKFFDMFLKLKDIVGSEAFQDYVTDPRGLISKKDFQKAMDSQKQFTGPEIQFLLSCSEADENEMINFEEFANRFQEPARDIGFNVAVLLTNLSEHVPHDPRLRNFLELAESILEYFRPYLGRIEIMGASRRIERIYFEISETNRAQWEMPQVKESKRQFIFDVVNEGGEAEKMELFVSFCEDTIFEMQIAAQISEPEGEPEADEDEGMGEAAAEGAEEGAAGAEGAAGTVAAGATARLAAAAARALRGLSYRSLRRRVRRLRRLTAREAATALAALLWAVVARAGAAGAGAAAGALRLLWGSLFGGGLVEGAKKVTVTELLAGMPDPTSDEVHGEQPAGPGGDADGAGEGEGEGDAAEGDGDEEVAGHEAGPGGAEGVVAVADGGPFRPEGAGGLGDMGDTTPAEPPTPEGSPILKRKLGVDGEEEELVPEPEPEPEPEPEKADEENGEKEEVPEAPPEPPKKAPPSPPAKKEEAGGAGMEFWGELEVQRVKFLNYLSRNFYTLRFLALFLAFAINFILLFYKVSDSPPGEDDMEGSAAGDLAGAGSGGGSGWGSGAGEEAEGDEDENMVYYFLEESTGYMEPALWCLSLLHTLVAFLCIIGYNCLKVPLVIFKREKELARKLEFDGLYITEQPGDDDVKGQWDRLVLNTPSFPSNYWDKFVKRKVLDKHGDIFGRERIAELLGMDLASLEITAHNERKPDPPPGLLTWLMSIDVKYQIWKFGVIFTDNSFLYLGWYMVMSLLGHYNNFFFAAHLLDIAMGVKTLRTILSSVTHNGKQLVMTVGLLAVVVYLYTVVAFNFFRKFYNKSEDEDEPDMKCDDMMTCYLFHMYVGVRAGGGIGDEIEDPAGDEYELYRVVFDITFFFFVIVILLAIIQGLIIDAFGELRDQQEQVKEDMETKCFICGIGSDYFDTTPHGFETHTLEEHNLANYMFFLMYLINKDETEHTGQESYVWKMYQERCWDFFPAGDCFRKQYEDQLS

Row | EC50 | SMILES
1 | 13.6 µM | O=C1N/C=C/c2ccc(c(Br)c2)Oc2cc(cc(Br)c2OS(=O)(=O)O)CCNC(=O)/C(=N/O)Cc2ccc(c(Br)c2)Oc2cc(cc(Br)c2OS(=O)(=O)O)C/C1=N\O
2 | > 100 µM | O=C1NCCc2ccc(c(Br)c2)Oc2cc(cc(Br)c2O)CCNC(=O)/C(=N/O)Cc2cc(Br)c(O)c(c2)Oc2c(Br)cc(cc2Br)C/C1=N\O [BASTADIN 19]
